The values below are quoted from earlier work in US20040048261A1, “Invertebrate choline transporter nucleic acids, polypeptides and uses thereof” (priority 2002, published 2004).

Each structure is given as a SMILES string.

For data set [1], the target named is low-affinity, sodium-independent system for choline uptake. The note with it: synaptosome studies, high choline concentrations, read-out: inhibition constant (Ki).
Data set [2] deals with high-affinity, sodium-dependent system for choline uptake. To be noted: synaptosome studies, low choline concentrations.

As for `C[N+]1(C)CCOC(O)(c2ccc(-c3ccc(C4(O)C[N+](C)(C)CCO4)cc3)cc2)C1` (centres unmarked) [HC-3, hemicholinium-3], the Ki – broadly, a measure of affinity in units of concentration, obtained from inhibition or displacement – in data set [1] is approximately 50 µM; in data set [2], 0.01 to 0.1 µM.
